Read-outs that look alike come from different tables or passages of the source.
Assay: Measurement of logP values by HPLC on reversed phase columns (EEC directive 79/831 Annex V.A8)
Type: physicochemical

Compound	LogP^[a] (method [a])	further results
Cc1nc(C(F)F)c(C(=O)Nc2ccc(F)c3c2CCCC3(C)C)s1 [Example 58]	3.79^[a]	–
CCON=C1CCCc2c(NC(=O)c3nccnc3I)cccc21 [Example 70]	3.44^[a]	–
CCON=C1CCCc2c(NC(=S)c3nccnc3C(F)(F)F)cccc21 [Example 91]	3.83^[a]	–
CON=C1CCCc2c(NC(=O)c3c(C(F)(F)F)nn(C)c3F)cccc21 [Example 75]	3.11^[a]	–
CC(C)C1CCCc2c(NC(=O)c3cn(C)nc3C(F)(F)F)cccc21 (stereo not shown) [Example 99]	–	LogP[a] (method [a], HPLC on reversed phase columns): 3.96^[a]
Cc1nn(C)c(F)c1C(=O)Nc1cccc2c1CC(C)(C)CC2 [Example 26]	3.31^[a]	–
Cc1oc(C)c(C(=O)Nc2cccc3c2CCC(C)(C)C3)c1C [Example 65]	4.59^[a]	–
CC1CCc2c(NC(=O)c3cn(C)nc3C(F)F)cccc2C1(C)C (racemic) [Example 1]	3.60^[a]	–
CC1CCc2cccc(NC(=O)c3cn(C)nc3C(F)F)c2C1(C)O (racemic) [Example 14]	3.96^[a]	–
CCON=C1CCCc2c(NC(=O)C3=C(C(F)(F)F)OCCS3)cccc21 [Example 74]	3.63^[a]	–
CC1c2c(cccc2NC(=O)c2cn(C)nc2C(F)F)CCC1(C)C (stereo not shown) [Example 34]	3.51^[a]	–
CON=C1CCCc2c(NC(=O)c3ccsc3Br)cccc21 [Example 49]	3.37^[a]	–
CON=C1CCCc2c(NC(=O)c3c(C)nn(C)c3F)cccc21 [Example 39]	2.47^[a]	–
CC1(C)CCCc2c(NC(=O)C3=C(C(F)(F)F)OCCS3)ccc(F)c21 [Example 57]	4.01^[a]	–
CON=C1CCCc2c(NC(=O)c3ccoc3C(F)F)cccc21 [Example 53]	3.25^[a]	–
C=C1c2cccc(NC(=O)c3c(C)nn(C)c3F)c2CCC1(C)C [Example 9]	3.48^[a]	–
Cc1oc(C)c(C(=O)Nc2ccc(F)c3c2CCCC3(C)C)c1C [Example 62]	4.51^[a]	–
Cc1nc(C(F)F)c(C(=O)Nc2cccc3c2CCC(C)(C)C3C)s1 (racemic) [Example 18]	4.09^[a]	–
CC1(C)CCc2c(cccc2NC(=O)c2ccsc2I)C1 [Example 87]	4.34^[a]	–
CC1(C)CCc2c(cccc2NC(=O)C2=C(C(F)(F)F)OCCS2)C1 [Example 69]	3.99^[a]	–
CCC1(CC)CCCc2c(NC(=O)c3cn(C)nc3C(F)F)cccc21 [Example 93]	4.03^[a]	–
Cc1nn(C)c(C)c1C(=O)Nc1cccc2c1CC(C)(C)CC2 [Example 23]	2.90^[a]	–

Compound	LogP^[a] (method [a])	further results
CCON=C1CCCc2c(NC(=O)c3c(C)oc(C)c3C)cccc21 [Example 78]	4.01^[a]	–
Cn1cc(C(=O)Nc2cccc3c2CCCC3)c(C(F)(F)F)n1 [Example 28]	2.92^[a]	–
CON=C1CCCc2c(NC(=O)C3=C(C(F)(F)F)OCCS3)cccc21 [Example 76]	3.21^[a]	–
Cc1nn(C)c(F)c1C(=O)Nc1cccc2c1CCC(C)(C)C2C (racemic) [Example 21]	3.70^[a]	–
Cc1nc(C(F)F)c(C(=O)Nc2cccc3c2CCC(C)(C)C3)s1 [Example 46]	3.81^[a]	–
Cn1cc(C(=S)Nc2ccc(F)c3c2CCCC3(C)C)c(C(F)F)n1 [Example 85]	3.87^[a]	–
CCc1nc(C)sc1C(=O)Nc1cccc2c1CCC(C)(C)C2C (racemic) [Example 19]	4.19^[a]	–
CON=C1CCCc2c(NC(=O)c3cn(C)nc3C(F)F)cccc21 [Example 38]	2.56^[a]	–
Cc1nn(C)c(C)c1C(=O)Nc1cccc2c1CCC(C)C2C (mixture of isomers) [Example 11]	3.00^[a]	–
Cn1cc(C(=O)Nc2cccc3c2CCCC3(C)C)c(C(F)F)n1 [Example 60]	3.39^[a]	–
CON=C1CCCc2c(NC(=O)c3c(C)oc(C)c3C)cccc21 [Example 71]	3.55^[a]	–
CON=C1CCCc2c(NC(=S)c3nccnc3C(F)(F)F)cccc21 [Example 88]	3.39^[a]	–
Cc1nc(C(F)F)c(C(=O)Nc2cccc3c2CCC(C)C3C)s1 (mixture of isomers) [Example 35]	3.78^[a]	–
CCc1nc(C)sc1C(=O)Nc1cccc2c1CCC(C)(C)C2=O [Example 32]	2.71^[a]	–
CON=C1CCCc2c(NC(=O)c3ccsc3I)cccc21 [Example 56]	3.37^[a]	–
CC1(C)CCCc2c(NC(=O)c3ccsc3I)ccc(F)c21 [Example 63]	4.29^[a]	–
CC1(C)CCCc2c(NC(=O)c3nccnc3C(F)(F)F)ccc(F)c21 [Example 52]	3.96^[a]	–
Cc1nn(C)c(F)c1C(=O)Nc1cccc2c1CCC(C)C2C (mixture of isomers) [Example 13]	3.41^[a]	–
CC1CCc2c(NC(=O)c3cn(C)nc3C(F)F)cccc2C1C (mixture of isomers) [Example 12]	3.37^[a]	–
CC1CCc2cccc(NC(=O)c3cn(C)nc3C(F)F)c2C1C (mixture of isomers) [Example 15]	3.21^[a]	–
CON=C1CCCc2c(NC(=O)c3sc(C)nc3C(F)F)cccc21 [Example 48]	2.92^[a]	–
CC1CCC(C)(C)c2cccc(NC(=O)c3cn(C)nc3C(F)F)c21 (racemic) [Example 17]	3.44^[a]	–

Compound	LogP^[a] (method [a])	further results
Cn1cc(C(=O)Nc2cccc3c2C(C)(C)CCC3)c(C(F)F)n1 [Example 92]	2.99^[a]	–
Cc1nc(C(F)F)c(C(=O)Nc2cccc3c2CCC(C)(C)C3=O)s1 [Example 33]	2.73^[a]	–
CON=C1CCCc2c(NC(=O)c3c(C)nn(C)c3C)cccc21 [Example 37]	2.17^[a]	–
CCc1nc(C)sc1C(=O)Nc1cccc2c1CCCC2=NOC [Example 47]	3.02^[a]	–
CCON=C1CCCc2c(NC(=O)c3c(C)nn(C)c3F)cccc21 [Example 40]	2.86^[a]	–
Cn1cc(C(=O)Nc2cccc3c2CC(C)(C)CC3)c(C(F)F)n1 [Example 5]	3.25^[a]	–
CCON=C1CCCc2c(NC(=O)c3ccsc3Br)cccc21 [Example 77]	3.87^[a]	–
CCc1nc(C)sc1C(=O)Nc1cccc2c1CC(C)(C)CC2 [Example 24]	3.79^[a]	–
Cc1nn(C)c(C)c1C(=O)Nc1cccc2c1CCC(C)(C)C2=O [Example 31]	2.04^[a]	–
CON=C1CCCc2c(NC(=O)c3nccnc3I)cccc21 [Example 54]	2.94^[a]	–
C=C1c2cccc(NC(=O)c3sc(C)nc3CC)c2CCC1(C)C [Example 8]	3.99^[a]	–
CCON=C1CCCc2c(NC(=O)c3ccsc3I)cccc21 [Example 84]	3.83^[a]	–
Cn1cc(C(=O)Nc2cccc3c2CCC(C)(C)C3)c(C(F)F)n1 [Example 43]	3.35^[a]	–
Cn1cc(C(=O)Nc2cccc3c2CCCC3)c(C(F)F)n1 [Example 27]	2.68^[a]	–
C=C1c2cccc(NC(=O)c3cn(C)nc3C(F)F)c2CCC1(C)C [Example 10]	3.48^[a]	–
Cc1nc(C(F)F)c(C(=O)Nc2cccc3c2CC(C)(C)CC3)s1 [Example 25]	3.72^[a]	–
CC1(C)CCc2c(cccc2NC(=O)c2ccsc2Br)C1 [Example 66]	4.41^[a]	–
CCON=C1CCCc2c(NC(=O)c3sc(C)nc3C(F)F)cccc21 [Example 80]	3.37^[a]	–
Cc1nn(C)c(C)c1C(=O)Nc1ccc(F)c2c1CCCC2(C)C [Example 90]	2.98^[a]	–
CCON=C1CCCc2c(NC(=O)c3c(C)nn(C)c3C)cccc21 [Example 41]	2.58^[a]	–
CCc1nc(C)sc1C(=O)Nc1cccc2c1CCC(C)C2C (mixture of isomers) [Example 36]	3.87^[a]	–
CC1c2cccc(NC(=O)c3cn(C)nc3C(F)F)c2CCC1(C)C (racemic) [Example 22]	3.68^[a]	–

Compound	LogP^[a] (method [a])	further results
Cc1nn(C)c(F)c1C(=O)Nc1cccc2c1CCC(C)(C)C2=O [Example 30]	2.28^[a]	–
CCON=C1CCCc2c(NC(=O)c3ccoc3C(F)F)cccc21 [Example 79]	3.68^[a]	–
CC1(C)CCc2c(cccc2NC(=O)c2ccoc2C(F)F)C1 [Example 64]	4.06^[a]	–
CC1(C)CCCc2c(NC(=O)c3ccoc3C(F)F)ccc(F)c21 [Example 51]	4.06^[a]	–
CCON=C1CCCc2c(NC(=S)c3ccoc3C(F)F)cccc21 [Example 89]	4.11^[a]	–
CC1(C)CCc2c(N)cccc2C1 [III-a-3, 6,6-dimethyl-5,6,7,8-tetrahydronaphthalen-1-amine]	–	chromatographic logP (reversed phase HPLC columns, method [a]: LC-MS at pH 2.7, 0,1% formic acid in water / acetonitrile, gradient 10% to 95% acetonitrile, amines of formula (III-a), read-out: LogP^[a]): 1.88
Cc1nn(C)c(C)c1C(=O)Nc1cccc2c1CCC(C)(C)C2 [Example 45]	2.94^[a]	–
C=C1c2cccc(NC(=O)c3sc(C)nc3C(F)F)c2CCC1(C)C [Example 7]	3.87^[a]	–
CCON=C1CCCc2c(NC(=O)c3nccnc3C(F)(F)F)cccc21 [Example 72]	3.55^[a]	–
CCc1nc(C)sc1C(=O)Nc1cccc2c1CCC(C)(C)C2 [Example 82]	3.87^[a]	–
CC1(C)CCCc2c(NC(=O)c3nccnc3I)ccc(F)c21 [Example 50]	3.92^[a]	–
C=C1c2cccc(NC(=O)c3c(C)nn(C)c3C)c2CCC1(C)C [Example 6]	3.05^[a]	–
CCON=C1CCCc2c(NC(=O)c3c(C(F)(F)F)nn(C)c3F)cccc21 [Example 73]	3.57^[a]	–
Cc1nn(C)c(F)c1C(=O)Nc1cccc2c1CCCC2(C)C [Example 61]	3.35^[a]	–
CCON=C1CCCc2c(NC(=O)c3cn(C)nc3C(F)F)cccc21 [Example 42]	2.96^[a]	–
Cc1nn(C)c(F)c1C(=O)Nc1cccc2c1CCCC2(C)C [Example 2, N-(5,5-dimethyl-5,6,7,8-tetrahydronaphthalen-1-yl)-5-fluoro-1,3-dimethyl-1H-pyrazole-4-carboxamide]	–	chromatographic logP (pH 2.7): 3.23
Cn1cc(C(=O)Nc2cccc3c2CCC(C)(C)C3=O)c(C(F)F)n1 [Example 29]	2.40^[a]	–
CON=C1CCCc2c(NC(=O)c3nccnc3C(F)(F)F)cccc21 [Example 55]	3.08^[a]	–
CC1(C)CCc2c(cccc2NC(=O)c2nccnc2C(F)(F)F)C1 [Example 68]	3.99^[a]	–
